The values that follow come from ChEMBL document CHEMBL2062396, “Synthesis and classical pathway Complement inhibitory activity of C7-functionalized filifolinol derivatives, inspired in K-76 COOH” (Eur J Med Chem, 2012).

pIC50: −log10 of the molar value. Counter-ions that a name gives are not always drawn.

One test can be described thus: Inhibition of human classical pathway Complement system assessed as inhibition of complement mediated hemolysis of sensitized sheep RBCs using fresh human sera by Weissman method.
Conditions: not given; call rule not given here
As to `C[C@@H]1CC[C@H](O)C(C)(C)[C@]12Cc1cc(C(=O)[O-])cc(CC(=O)O)c1O2.[Na+]`, the IC50 entry is “Not Active”.

Staying with this test, now noted: read-out: IC50.
Usually pIC50 stands for −log10 of the IC50, conventionally taken in molar units. For the compound `C[C@@H]1CC[C@H](O)C(C)(C)[C@]12Cc1cc(C(=O)O)cc(Cl)c1O2`, the pIC50 is 2.81.
Regarding `C[C@@H]1CC[C@H]2C(C)(C)[C@H](O)[C@H](O)C[C@]2(C)[C@@]12Cc1c(O)cc(C(=O)O)c(C=O)c1O2`, the pIC50 is 3.24.
Turning to `C[C@@H]1CC[C@H](O)C(C)(C)[C@]12Cc1cc(C(=O)O)cc([N+](=O)[O-])c1O2`, the pIC50 is 2.73.
Turning to `C[C@@H]1CC[C@H](O)C(C)(C)[C@]12Cc1cc(C(=O)O)cc(N)c1O2`, the pIC50 was 2.14.
Regarding `C[C@@H]1CC[C@H](O)C(C)(C)[C@]12Cc1cc(C(=O)O)cc(I)c1O2`, the negative logarithm of the IC50 (pIC50) is 2.94.
Regarding `C[C@@H]1CC[C@H](O)C(C)(C)[C@]12Cc1cc(C(=O)O)cc(Br)c1O2`, the pIC50 is 3.08.
For the compound `C[C@@H]1CC[C@H](O)C(C)(C)[C@]12Cc1cc(C(=O)O)cc(C(F)(F)F)c1O2`, the pIC50 was 4.00.
Take `C[C@@H]1CC[C@H](O)C(C)(C)[C@]12Cc1cc(C(=O)O)cc(-c3ccccc3)c1O2`: the pIC50 was 3.85.
Take `C[C@@H]1CC[C@H](O)C(C)(C)[C@]12Cc1cc(C(=O)O)cc(C(=O)O)c1O2`: the pIC50 is 2.15.
`C[C@@H]1CC[C@H](O)C(C)(C)[C@]12Cc1cc(C(=O)O)cc(/C=C/C(=O)O)c1O2`: the negative logarithm of the IC50 (pIC50) was 3.01.
Same read-out and setting: the result for `C[C@@H]1CC[C@H](O)C(C)(C)[C@]12Cc1cc(C(=O)O)cc(CCC(=O)O)c1O2` reads 3.44; that for `C[C@@H]1CC[C@H](O)C(C)(C)[C@]12Cc1cc(C(=O)O)cc(-c3ccc(C(=O)O)cc3)c1O2`, 1.74.
On the same count and under the same terms, with `C[C@@H]1CC[C@H](O)C(C)(C)[C@]12Cc1cc(C(=O)O)cc(CC(O)CO)c1O2` (mixture of isomers) the figure was 3.44.
Same read-out and setting: with `C[C@@H]1CC[C@H](O)C(C)(C)[C@]12Cc1cc(C(=O)O)ccc1O2` [FILIFOLINOIC ACID SODIUM SALT] the figure was 2.70; with `CC1(C)CC[C@]2(C(=O)O)CC[C@]3(C)C(=CC[C@@H]4[C@@]5(C)CC[C@H](OC(=O)COCC(=O)O)C(C)(C)[C@@H]5CC[C@]43C)[C@@H]2C1` [OLEANOLIC ACID HEMIDIGLYCOLATE SODIUM SALT], 4.51.
